{"source": "the supplement of paper PMC9663587", "key": {"[1]": {"compound": "CC(=O)c1c(C)c2cnc(Nc3ccc(N4CCNCC4)cn3)nc2n(C2CCCC2)c1=O", "assay": "increase in dead-cell fraction, 72 h; higher = more death;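 further: breast cancer cell lines in 384-well plates, stained with Hoechst plus LIVE/DEAD far red dye and imaged, cells above an LDR intensity threshold counted dead, Hoechst-negative corpses included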"}, "[2]": {"compound": "CCN1CCN(Cc2ccc(Nc3ncc(F)c(-c4cc(F)c5nc(C)n(C(C)C)c5c4)n3)nc2)CC1", "assay": "increase in dead-cell fraction, 72 h; higher = more death"}, "LEE011/Ribociclib": {"compound": "CN(C)C(=O)c1cc2cnc(Nc3ccc(N4CCNCC4)cn3)nc2n1C1CCCC1 [LEE011/Ribociclib]", "assay": "increase in dead-cell fraction, 72 h; higher = more death"}, "Flavopiridol": {"compound": "CN1CC[C@H](c2c(O)cc(O)c3c(=O)cc(-c4ccccc4Cl)oc23)[C@H](O)C1 [Flavopiridol]", "assay": "increase in dead-cell fraction, 72 h; higher = more death"}, "BSJ-03-123": {"compound": "CC(=O)c1c(C)c2cnc(Nc3ccc(N4CCN(CCOCCOCCOCCNC(=O)COc5cccc6c5C(=O)N(C5CCC(=O)NC5=O)C6=O)CC4)cn3)nc2n(C2CCCC2)c1=O [BSJ-03-123]", "assay": "GR value, 72 h; higher = faster growth (1 = untreated, <0 = killing);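 further: breast cancer and non-malignant breast epithelial lines, nine half-log doses, viable cells counted by Hoechst and LIVE/DEAD dye imaging versus time-zero plates and DMSO controls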"}, "[3]": {"compound": "CC(=O)c1c(C)c2cnc(Nc3ccc(N4CCNCC4)cn3)nc2n(C2CCCC2)c1=O", "assay": "GR value, 72 h; higher = faster growth (1 = untreated, <0 = killing)"}}}
{"cell line": "MCF7", "values": [{"measurement": "increase in dead-cell fraction", "setting": "[1]; 0.0003162 µM", "result": -0.0006}, {"measurement": "increase in dead-cell fraction", "setting": "[1]; 0.001 µM", "result": -0.0004}, {"measurement": "increase in dead-cell fraction", "setting": "[1]; 0.003162 µM", "result": 0.002}, {"measurement": "increase in dead-cell fraction", "setting": "[1]; 0.01 µM", "result": 0.0051}, {"measurement": "increase in dead-cell fraction", "setting": "[1]; 0.03162 µM", "result": 0.0099}, {"measurement": "increase in dead-cell fraction", "setting": "[1]; 0.1 µM", "result": 0.0195}, {"measurement": "increase in dead-cell fraction", "setting": "[1]; 0.3162 µM", "result": 0.022}, {"measurement": "increase in dead-cell fraction", "setting": "[1]; 1 µM", "result": 0.0362}, {"measurement": "increase in dead-cell fraction", "setting": "[1]; 3.162 µM", "result": 0.0308}, {"measurement": "increase in dead-cell fraction", "setting": "[2]; 0.001 µM", "result": 0.0009}, {"measurement": "increase in dead-cell fraction", "setting": "[2]; 0.003162 µM", "result": 0.0022}, {"measurement": "increase in dead-cell fraction", "setting": "[2]; 0.01 µM", "result": 0.0141}, {"measurement": "increase in dead-cell fraction", "setting": "[2]; 0.03162 µM", "result": 0.0241}, {"measurement": "increase in dead-cell fraction", "setting": "[2]; 0.1 µM", "result": 0.0305}, {"measurement": "increase in dead-cell fraction", "setting": "[2]; 0.3162 µM", "result": 0.0363}, {"measurement": "increase in dead-cell fraction", "setting": "[2]; 1 µM", "result": 0.0543}, {"measurement": "increase in dead-cell fraction", "setting": "[2]; 3.162 µM", "result": 0.277}, {"measurement": "increase in dead-cell fraction", "setting": "[2]; 10 µM", "result": 0.373}, {"measurement": "increase in dead-cell fraction", "setting": "LEE011/Ribociclib; 0.001 µM", "result": 0.0006}, {"measurement": "increase in dead-cell fraction", "setting": "LEE011/Ribociclib; 0.003162 µM", "result": 0.0004}, {"measurement": "increase in dead-cell fraction", "setting": "LEE011/Ribociclib; 0.01 µM", "result": 0.0034}, {"measurement": "increase in dead-cell fraction", "setting": "LEE011/Ribociclib; 0.03162 µM", "result": 0.0049}, {"measurement": "increase in dead-cell fraction", "setting": "LEE011/Ribociclib; 0.1 µM", "result": 0.0006}, {"measurement": "increase in dead-cell fraction", "setting": "LEE011/Ribociclib; 0.3162 µM", "result": 0.0139}, {"measurement": "increase in dead-cell fraction", "setting": "LEE011/Ribociclib; 1 µM", "result": 0.0076}, {"measurement": "increase in dead-cell fraction", "setting": "LEE011/Ribociclib; 3.162 µM", "result": 0.0151}, {"measurement": "increase in dead-cell fraction", "setting": "LEE011/Ribociclib; 10 µM", "result": 0.0147}, {"measurement": "increase in dead-cell fraction", "setting": "Flavopiridol; 0.0001 µM", "result": -0.0023}, {"measurement": "increase in dead-cell fraction", "setting": "Flavopiridol; 0.0003162 µM", "result": 0.0009}, {"measurement": "increase in dead-cell fraction", "setting": "Flavopiridol; 0.001 µM", "result": 0.0003}, {"measurement": "increase in dead-cell fraction", "setting": "Flavopiridol; 0.003162 µM", "result": 0.0007}, {"measurement": "increase in dead-cell fraction", "setting": "Flavopiridol; 0.01 µM", "result": 0.0049}, {"measurement": "increase in dead-cell fraction", "setting": "Flavopiridol; 0.03162 µM", "result": 0.0017}, {"measurement": "increase in dead-cell fraction", "setting": "Flavopiridol; 0.1 µM", "result": 0.0144}, {"measurement": "increase in dead-cell fraction", "setting": "Flavopiridol; 0.3162 µM", "result": 0.257}, {"measurement": "increase in dead-cell fraction", "setting": "Flavopiridol; 1 µM", "result": 0.183}, {"measurement": "GR value", "setting": "BSJ-03-123; 0.001 µM", "result": 0.928, "unit": "GR"}, {"measurement": "GR value", "setting": "BSJ-03-123; 0.003162 µM", "result": 0.899, "unit": "GR"}, {"measurement": "GR value", "setting": "BSJ-03-123; 0.01 µM", "result": 0.858, "unit": "GR"}, {"measurement": "GR value", "setting": "BSJ-03-123; 0.03162 µM", "result": 0.784, "unit": "GR"}, {"measurement": "GR value", "setting": "BSJ-03-123; 0.1 µM", "result": 0.789, "unit": "GR"}, {"measurement": "GR value", "setting": "BSJ-03-123; 0.3162 µM", "result": 0.727, "unit": "GR"}, {"measurement": "GR value", "setting": "BSJ-03-123; 1 µM", "result": 0.604, "unit": "GR"}, {"measurement": "GR value", "setting": "BSJ-03-123; 3.162 µM", "result": 0.544, "unit": "GR"}, {"measurement": "GR value", "setting": "BSJ-03-123; 10 µM", "result": -0.327, "unit": "GR"}, {"measurement": "GR value", "setting": "[3]; 0.0003162 µM", "result": 1.04, "unit": "GR"}, {"measurement": "GR value", "setting": "[3]; 0.001 µM", "result": 1.02, "unit": "GR"}, {"measurement": "GR value", "setting": "[3]; 0.003162 µM", "result": 0.962, "unit": "GR"}, {"measurement": "GR value", "setting": "[3]; 0.01 µM", "result": 0.85, "unit": "GR"}, {"measurement": "GR value", "setting": "[3]; 0.03162 µM", "result": 0.626, "unit": "GR"}, {"measurement": "GR value", "setting": "[3]; 0.1 µM", "result": 0.476, "unit": "GR"}, {"measurement": "GR value", "setting": "[3]; 0.3162 µM", "result": 0.355, "unit": "GR"}, {"measurement": "GR value", "setting": "[3]; 1 µM", "result": 0.297, "unit": "GR"}, {"measurement": "GR value", "setting": "[3]; 3.162 µM", "result": 0.254, "unit": "GR"}]}
